According to patent US4711245A, “Sensor for components of a liquid mixture” (Genetics International, Inc., priority 1983, dated 1987):
Where a name gives a salt, the structure may show the parent alone. Blank lines part the entries; values can stand above or below the compound they belong to.

Columns and labels:
[1] = dc cyclic voltammetry of ferrocene derivatives (redox potential); format: physicochemical; details: for Eo: vs a standard calomel electrode, phosphate buffer at pH 7.0
glucose oxidase [2] = biological target: T1, glucose oxidase (Aspergillus niger, UniProt P13006); assay: substrate kinetics of glucose oxidase (relative rate, Km); format: biochemical; details: substrates for glucose oxidase; β-D-glucose 100
[3] = spectrophotometric measurement (E, cm^-1 M^-1); format: physicochemical
[4] = biological target: T2, glucose enzyme electrode (glucose oxidase) (Aspergillus niger, UniProt P13006); assay: steady-state current response of the 1,1'-dimethylferrocene/glucose oxidase enzyme electrode (interfering substances, KM'); details: for interference to the electrodes response to glucose: added at normal blood concentration
T2 construct: purchased Boehringer Mannheim

glucose oxidase [5] = biological target: T1, glucose oxidase; details: non-immobilized enzyme; cited from earlier work
[6] = vs NHE; cited from earlier work
glucose oxidase [7] = biological target: T1, glucose oxidase; details: cited from earlier work
glucose oxidase [8] = biological target: T1, glucose oxidase; format: biochemical; details: pH 7

T2 sequence (P13006 23-605 limits assumed): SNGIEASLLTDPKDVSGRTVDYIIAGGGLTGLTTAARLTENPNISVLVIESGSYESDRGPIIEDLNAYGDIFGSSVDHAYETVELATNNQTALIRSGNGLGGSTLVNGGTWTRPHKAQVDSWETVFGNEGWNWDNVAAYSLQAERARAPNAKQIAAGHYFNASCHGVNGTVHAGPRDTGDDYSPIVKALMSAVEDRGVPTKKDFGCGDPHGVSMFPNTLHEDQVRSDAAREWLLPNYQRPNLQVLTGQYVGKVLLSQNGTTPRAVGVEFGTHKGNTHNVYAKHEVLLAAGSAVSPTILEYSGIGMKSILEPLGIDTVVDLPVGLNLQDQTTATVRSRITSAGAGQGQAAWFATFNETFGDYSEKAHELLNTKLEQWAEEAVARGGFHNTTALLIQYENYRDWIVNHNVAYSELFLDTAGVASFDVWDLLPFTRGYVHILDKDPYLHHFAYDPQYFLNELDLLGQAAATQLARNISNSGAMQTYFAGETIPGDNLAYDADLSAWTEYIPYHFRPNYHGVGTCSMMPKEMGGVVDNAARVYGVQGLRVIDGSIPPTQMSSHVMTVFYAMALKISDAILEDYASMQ
T1 sequence (P13006 23-605): as the sequence (P13006 23-605 limits assumed) above

Eo [1]: 100 mV
Compound: 1,1'-dimethylferrocene [1,1'-dimethyl-]

Eo' ([1]; Example 4, procedure of Example 3, saturated calomel reference): +420 mV
Eo [1]: 385 mV
Compound: 1,1'-ferrocene dicarboxylic acid [1,1'-dicarboxylic acid]

Compound: 6-methyl-D-glucose
Relative Rate (glucose oxidase [2]): 2

Eo [1]: 224 mV
E [3]: 385 cm⁻¹ M⁻¹
Compound: OC[c-]1cccc1.OC[c-]1cccc1.[Fe+2] [1,1'bis(hydroxymethyl)-]

Compound: OC[C@H]1OC(O)C[C@@H](O)[C@@H]1O (stereo partly drawn) [2-deoxy-D-glucose]
Relative Rate (glucose oxidase [2]): 25

Compound: OC[C@H]1OC(O)[C@@H](O)[C@@H](O)[C@@H]1O (stereo partly drawn) [D-mannose]
Relative Rate (glucose oxidase [2]): 1

Compound: OC1OC[C@@H](O)[C@H](O)[C@H]1O (stereo partly drawn) [D-xylose]
interference to the electrodes response to glucose ([4]; 8 mM glucose): did not cause any observable interference

Compound: OC[C@H]1OC(O)[C@H](O)[C@@H](O)[C@@H]1O (some centres unmarked) [Glucose]
Km ([4]; glucose oxidase immobilized on the prototype ferrocene-based electrodes, kinetically-controlled, read-out: apparent Michaelis-Menten constant KM'): 30 to 40 mM
Km (glucose oxidase [5]): 3 mM

Compound: O=C1O[C@H]([C@@H](O)CO)C(O)=C1O [L-ascorbate]
mean increase in current ([4]; 8 mM glucose, final concentration of 0.13 mM): ca. 4.0%

Compound: Cl.N[C@@H](CS)C(=O)O [L-cysteine HCl]
interference to the electrodes response to glucose ([4]; 8 mM glucose): did not cause any observable interference

Eo [1]: 345 mV
Compound: Cl[c-]1cccc1.[Fe+2].c1cc[cH-]c1 [chloro-]

Eo [1]: 165 mV
E [3]: 335 cm⁻¹ M⁻¹
Compound: [Fe+2].c1cc[cH-]c1.c1cc[cH-]c1 [ferrocene]
redox potential [6]: +422 mV

Compound: O=O [molecular oxygen]
ks, rate of reaction of the natural electron acceptor with glucose oxidase (glucose oxidase [7]): 10^6 M^-1 S^-1

Compound: N[C@@H](CCC(=O)N[C@@H](CS)C(=O)NCC(=O)O)C(=O)O [reduced glutathione]
interference to the electrodes response to glucose ([4]; 8 mM glucose): did not cause any observable interference

Compound: O=CO [sodium formate]
interference to the electrodes response to glucose ([4]; 8 mM glucose): did not cause any observable interference

Compound: OC[C@H]1O[C@H](O)[C@H](O)[C@@H](O)[C@@H]1O [α-D-glucose]
Relative Rate (glucose oxidase [2]): 0.6

Compound: OC[C@H]1O[C@H](O)[C@H](O)[C@@H](O)[C@H]1O [α-galactose]
interference to the electrodes response to glucose ([4]; 8 mM glucose): did not cause any observable interference

Compound: OC[C@H]1O[C@H](O)[C@@H](O)[C@@H](O)[C@@H]1O [α-mannose]
interference to the electrodes response to glucose ([4]; 8 mM glucose): did not cause any observable interference

Compound: OC[C@H]1O[C@@H](O)[C@H](O)[C@@H](O)[C@@H]1O [β-D-glucose]
Relative Rate (glucose oxidase [2]): 100

Compound: vinyl ferrocene [vinyl-]
Eo/mV vs SCE ([1]; pH 7): 250 mV
Rates of glucose oxidase oxidation (glucose oxidase [8]): 18
